Measurements as given in US20150080475A1, “Memantine Protects Inflammation-Related Degeneration of Dopamine Neurons Through Inhibition of Over-Activated Microglia and Release of Neurotrophic Factors From Astroglia” (priority 2009, published 2015).

How the values were obtained:
[1] = tested on: TH-ir neurons; assay: Cell count of TH-ir neurons in rat neuron-glia cultures; format: cell-based
Description: For visual counting of TH-ir neurons after Immunostaining, nine representative areas per well of the 24-well plate were counted under the microscope at 100¥ magnification. To measure the average TH-ir dendrite, 50 TH-ir representative neurons in each well were selected and three wells for each treatment condition were selected. In addition, the average dendrite length of TH-ir neurons was measured (Liu Y X, Qin L, Wilson B C, An L, Hong J S and Liu B (2002b) Inhibition by naloxone stereoisomers of -amyloid peptide (1-42)-induced superoxide production in microglia and degeneration of cortical and mesencephalic neurons. J Pharmacol Exp Ther 302: 1212-1219.).
Rat mesencephalic neuron-glia cultures were pretreated for 30 min with vehicle or 1, 3, 10 μM MMT before adding LPS (2.5 to 5 ng/ml) to the cultures. One week later, the neurotoxic effect of LPS on DA neurons were assessed by both [H^3] DA uptake, which measures the functional capacity of high affinity uptake of DA cells and cell count of tyrosine hydroxylase-positive (TH-ir) cells. [H^3] […] MMT alone increased the uptake capacity by 30-80% in 3 and 10 μM of MMT, respectively. […] The neurotrophic effect of MMT is astrocyte-dependent. Astrocytes, not micrglia, contribute to the neurotrophic effect of MMT at 1-10 μM MMT (FIG. 10).
In addition to the pre-treatment experiments, similar studies using post-treatment designs were conducted to determine the efficacy of MMT. In these experiments, neuron-glia cultures were either treated with MMT (10 μM) and LPS (2.5 ng/ml) at the same time, or MMT was added 30, 60, 120 or 180 min after the addition of LPS. One week later, DA uptake of the culture was assayed.
DA neurons were recognized with the polyclonal antibody against tyrosine hydroxylase (TH) and microglia was detected with the OX-42 antibody against CR3 receptor. […] To quantify cell numbers, nine representative areas per well in the 24-well plate were counted under the microscope at 100× magnification by two individuals. […]

[2] = tested on: microglia; assay: Superoxide assay (SOD-inhibitable WST-1 reduction) after LPS; format: cell-based; details: 30 min after LPS
Description: Extracellular superoxide (O2^−) production from microglia was determined by measuring the superoxide dismutase (SOD) inhibitable reduction of 2-(4-lodophenyl)-3-(4-nitrophenyl)-5-(2,4,-disulfophenyl)-2H-tetrazolium, monosodium salt, WST-1. Briefly, 200 μL of primary enriched-microglia were seeded (1×10^5/well) in 96-well plates. The cells were then incubated for 24 h at 37° C. in a humidified atmosphere of 5% CO2 and 95% air. Immediately before treatment, cells were washed twice with Hanks balanced salt solution (HBSS). To each well, 100 μL of HBSS with or without SOD (600 U/mL), 50 μL of vehicle or LPS, and 50 μL of WST-1 (1 mM) in HBSS were added. The cultures were incubated for 30 min at 37° C. and 5% CO2 and 95% air. The absorbance at 450 nm was read with a Spectra Max Plus microtiter plate spectrophotometer (Molecular Devices, Sunnyvale, Calif., USA). […] The amount of SOD-inhibitable superoxide was calculated and expressed as percent of vehicle-treated control cultures.
Neuron-glia cultures were pretreated for 30 min with MMT (3 μM) or vehicle before LPS stimulation. […] Production of superoxide (30 min after LPS) and iROS (2 h after LPS) was decreased by MMT treatment (FIGS. 6A and 6B). […] The production of PGE2 in cultures pretreated with 3 and 10 μM MMT decreased by 23% and 27% respectively (FIG. 6E).

[3] = tested on: DA neurons; assay: Neurotrophic effect in neuron-enriched, microglia-added and microglia-depleted cultures (DA uptake); format: cell-based, rat
Description: Astrocytes, not micrglia, contribute to the neurotrophic effect of MMT. Neuron-enriched cultures were treated with vehicle and 1-10 μM MMT (FIG. 10A); 10% (5×10^4/well) of microglia were added back to neuron-enriched cultures and treated with 10 μM MMT (FIG. 10B); Depleted microglia cultures were treated with 10 μM MMT (FIG. 10C). ┌^3H┘ DA uptake was assayed 7 days after treatment. Values are mean±SEM of three independent experiments. *p<0.05, compared with corresponding vehicle-treated control cultures.
In addition to neuroprotection against LPS-induced neurotoxicity, MMT is found to have high potency of neurotrophic effect on DA neurons in rat primary mesencephalic neuron-glia cultures.
Mesencephalic neuron-glia cultures were seeded (5×10^5/well) in 24 well plates precoated with poly D-lysine. Thirty-six hours postseeding, 5-10 μM cytosine β-D-arabinofuranoside was added to the culture. After 2 days, the cytosine β-D-arabinofuranoside was removed and replaced with fresh media. Neuron-enriched cultures are 98% pure, as indicated by ICC staining with OX-42 and GFAP antibodies. Neuron-enriched cultures were treated 7 days post-seeding. For microglia add-back cultures, the microglia were plated on top of the neuron-enriched culture at 6 days postseeding, resulting in the addition of either 10% (500 μL of 1×10^5) or 20% (500 μL of 2×10^5) microglia. Cells were treated 7 days after the initial seeding of the neuron-enriched cultures.

## CC12CC3CC(C)(C1)CC(N)(C3)C2.Cl [MMT, 1-amino-3,5-dimethyladamantane hydrochloride]
[1]; MMT 3 and 10 μM
  effect on LPS-induced reduction in the number of TH-ir neurons: significantly attenuated the LPS-induced reduction in the number of TH-ir neurons
[1]; MMT alone
  growth of neurites (morphological observation): enhanced the growth of neurites
  number of TH-ir (DA) neurons vs vehicle control: increased the survival DA neuron number
[2]
  production of superoxide: decreased
[3]; 10% of microglia added back to neuron-enriched cultures
  neurotrophic effect on DA neurons: not microglia-added cultures
[3]; microglia-depleted neuron/glia culture
  neurotrophic effect on DA neurons: neurotrophic in microglia-depleted neuron/glia culture
[3]; neuron-enriched cultures
  neurotrophic effect on DA neurons: failed to show any protective effect
